Key:
Raji [1] = assay: Inhibition of TPA-induced EBA-early antigen production in human Raji cells at 10^-7 M; format: cell-based; design: scale not given: the % may be the effect or the level left; settings: human gammaherpesvirus 4
[2] = target: Protein kinase C theta type (Homo sapiens, UniProt Q04759); assay: Inhibition of [3H]PDBu binding to PKCtheta C1B peptide
[3] = target: T1, Protein kinase C epsilon type (Homo sapiens, UniProt Q02156); assay: Inhibition of [3H]PDBu binding to PKCepsilon C1B peptide
T1 sequence (Q02156 whole entry): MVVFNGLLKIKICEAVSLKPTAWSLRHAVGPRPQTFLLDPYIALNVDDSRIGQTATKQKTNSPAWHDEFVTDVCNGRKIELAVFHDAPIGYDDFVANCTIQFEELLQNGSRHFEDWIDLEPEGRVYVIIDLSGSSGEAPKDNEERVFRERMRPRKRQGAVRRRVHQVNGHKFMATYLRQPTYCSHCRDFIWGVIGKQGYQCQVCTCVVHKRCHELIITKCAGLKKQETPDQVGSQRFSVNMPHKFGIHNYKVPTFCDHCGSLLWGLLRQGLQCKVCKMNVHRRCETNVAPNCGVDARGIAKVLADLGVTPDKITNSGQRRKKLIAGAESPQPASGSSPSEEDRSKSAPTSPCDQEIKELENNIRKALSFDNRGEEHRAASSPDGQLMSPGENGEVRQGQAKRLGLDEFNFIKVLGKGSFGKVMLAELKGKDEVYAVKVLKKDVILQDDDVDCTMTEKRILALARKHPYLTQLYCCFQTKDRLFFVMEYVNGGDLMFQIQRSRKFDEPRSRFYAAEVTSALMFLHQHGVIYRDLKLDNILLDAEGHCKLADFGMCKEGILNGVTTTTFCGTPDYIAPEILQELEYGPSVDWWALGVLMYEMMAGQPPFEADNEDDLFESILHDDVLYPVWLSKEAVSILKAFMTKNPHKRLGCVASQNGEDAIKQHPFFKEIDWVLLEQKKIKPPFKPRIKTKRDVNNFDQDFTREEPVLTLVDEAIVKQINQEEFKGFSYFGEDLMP

[4] = Cytotoxicity against human Raji cells assessed as viability at 10^-7 M in presence of TPA; format: cell-based; settings: read-out: Activity
Raji [5] = assay: Induction of EBA-early antigen production in human Raji cells at 10^-7 M; format: cell-based; settings: human gammaherpesvirus 4
[6] = target: T2, Protein kinase C delta type (Homo sapiens, UniProt Q05655); assay: Inhibition of [3H]PDBu binding to PKC delta C1B peptide
[7] = target: Protein kinase C beta type (Homo sapiens, UniProt P05771); assay: Inhibition of [3H]PDBu binding to PKC beta C1A peptide
[8] = target: T2, Protein kinase C delta type; assay: Inhibition of [3H]PDBu binding to PKC delta C1A peptide
[9] = Cytotoxicity against human Raji cells assessed as viability at 1 uM; format: cell-based; settings: read-out: Activity
[10] = Cytotoxicity against human Raji cells assessed as viability at 1 uM in presence of TPA; format: cell-based; settings: read-out: Activity
[11] = target: Protein kinase C gamma type (Homo sapiens, UniProt P05129); assay: Inhibition of [3H]PDBu binding to PKC gamma C1A peptide
[12] = Cytotoxicity against human Raji cells assessed as viability at 10^-7 M; format: cell-based; settings: read-out: Activity
[13] = target: Protein kinase C alpha type (Homo sapiens, UniProt P17252); assay: Inhibition of [3H]PDBu binding to PKC alpha C1A peptide
[14] = target: Protein kinase C eta type (Homo sapiens, UniProt P24723); assay: Inhibition of [3H]PDBu binding to PKCeta C1B peptide
Raji [15] = assay: Inhibition of TPA-induced EBA-early antigen production in human Raji cells at 1 uM; format: cell-based; design: scale not given: the % may be the effect or the level left; settings: human gammaherpesvirus 4
Raji [16] = assay: Induction of EBA-early antigen production in human Raji cells at 1 uM; format: cell-based; settings: human gammaherpesvirus 4

T2 sequence (Q05655 whole entry): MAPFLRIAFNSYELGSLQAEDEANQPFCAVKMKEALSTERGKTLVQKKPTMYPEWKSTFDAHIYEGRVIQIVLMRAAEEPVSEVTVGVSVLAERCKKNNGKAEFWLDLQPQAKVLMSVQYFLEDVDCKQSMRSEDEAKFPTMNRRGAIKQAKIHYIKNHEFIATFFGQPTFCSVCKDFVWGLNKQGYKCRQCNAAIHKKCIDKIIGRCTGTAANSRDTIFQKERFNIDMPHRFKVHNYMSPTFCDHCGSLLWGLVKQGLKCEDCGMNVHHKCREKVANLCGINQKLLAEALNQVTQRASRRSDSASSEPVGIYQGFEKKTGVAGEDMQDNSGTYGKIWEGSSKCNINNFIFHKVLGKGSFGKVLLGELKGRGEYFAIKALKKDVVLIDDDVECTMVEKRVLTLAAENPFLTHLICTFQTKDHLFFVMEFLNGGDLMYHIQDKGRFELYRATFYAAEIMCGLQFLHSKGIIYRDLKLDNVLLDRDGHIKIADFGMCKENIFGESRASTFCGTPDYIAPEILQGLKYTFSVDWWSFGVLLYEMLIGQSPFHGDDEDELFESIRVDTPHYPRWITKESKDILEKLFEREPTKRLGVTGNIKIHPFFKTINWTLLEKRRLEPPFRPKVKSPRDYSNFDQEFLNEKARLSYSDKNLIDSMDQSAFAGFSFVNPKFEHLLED
Protein kinase C beta type, sequence (P05771 whole entry): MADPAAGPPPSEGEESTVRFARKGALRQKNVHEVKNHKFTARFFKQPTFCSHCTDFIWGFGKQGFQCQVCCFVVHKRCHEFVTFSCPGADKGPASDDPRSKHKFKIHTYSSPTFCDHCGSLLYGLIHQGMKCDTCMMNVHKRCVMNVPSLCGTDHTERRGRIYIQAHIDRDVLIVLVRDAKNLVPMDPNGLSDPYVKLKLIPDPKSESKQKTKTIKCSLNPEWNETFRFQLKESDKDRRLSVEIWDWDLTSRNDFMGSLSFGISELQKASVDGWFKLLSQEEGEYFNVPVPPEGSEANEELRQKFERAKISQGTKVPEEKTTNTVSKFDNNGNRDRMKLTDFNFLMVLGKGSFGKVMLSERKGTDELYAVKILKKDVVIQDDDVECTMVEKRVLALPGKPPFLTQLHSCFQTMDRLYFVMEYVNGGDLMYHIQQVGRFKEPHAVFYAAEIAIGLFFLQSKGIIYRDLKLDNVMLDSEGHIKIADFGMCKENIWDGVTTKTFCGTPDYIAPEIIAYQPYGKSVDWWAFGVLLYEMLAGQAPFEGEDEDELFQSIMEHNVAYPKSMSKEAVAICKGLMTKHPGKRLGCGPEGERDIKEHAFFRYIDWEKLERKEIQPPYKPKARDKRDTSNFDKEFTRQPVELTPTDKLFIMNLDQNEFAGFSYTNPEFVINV
Protein kinase C theta type, sequence (Q04759 whole entry): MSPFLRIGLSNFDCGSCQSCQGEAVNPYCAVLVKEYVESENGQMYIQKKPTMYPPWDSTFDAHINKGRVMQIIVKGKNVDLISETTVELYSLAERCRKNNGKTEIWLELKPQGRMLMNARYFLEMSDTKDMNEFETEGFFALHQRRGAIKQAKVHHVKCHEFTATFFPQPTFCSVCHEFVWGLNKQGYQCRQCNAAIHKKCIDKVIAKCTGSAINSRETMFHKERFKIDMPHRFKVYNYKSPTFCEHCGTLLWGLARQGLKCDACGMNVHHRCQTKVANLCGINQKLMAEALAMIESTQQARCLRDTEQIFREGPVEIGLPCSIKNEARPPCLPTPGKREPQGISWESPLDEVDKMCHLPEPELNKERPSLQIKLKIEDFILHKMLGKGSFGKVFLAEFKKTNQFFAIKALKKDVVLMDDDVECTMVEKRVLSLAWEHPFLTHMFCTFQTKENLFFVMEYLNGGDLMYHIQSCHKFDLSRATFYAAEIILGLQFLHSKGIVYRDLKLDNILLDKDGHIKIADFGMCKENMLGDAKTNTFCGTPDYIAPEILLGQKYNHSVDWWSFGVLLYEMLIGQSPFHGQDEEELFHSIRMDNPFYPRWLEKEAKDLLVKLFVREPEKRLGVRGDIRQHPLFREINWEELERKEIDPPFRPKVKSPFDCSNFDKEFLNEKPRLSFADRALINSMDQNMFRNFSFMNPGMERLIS
Protein kinase C eta type, sequence (P24723 whole entry): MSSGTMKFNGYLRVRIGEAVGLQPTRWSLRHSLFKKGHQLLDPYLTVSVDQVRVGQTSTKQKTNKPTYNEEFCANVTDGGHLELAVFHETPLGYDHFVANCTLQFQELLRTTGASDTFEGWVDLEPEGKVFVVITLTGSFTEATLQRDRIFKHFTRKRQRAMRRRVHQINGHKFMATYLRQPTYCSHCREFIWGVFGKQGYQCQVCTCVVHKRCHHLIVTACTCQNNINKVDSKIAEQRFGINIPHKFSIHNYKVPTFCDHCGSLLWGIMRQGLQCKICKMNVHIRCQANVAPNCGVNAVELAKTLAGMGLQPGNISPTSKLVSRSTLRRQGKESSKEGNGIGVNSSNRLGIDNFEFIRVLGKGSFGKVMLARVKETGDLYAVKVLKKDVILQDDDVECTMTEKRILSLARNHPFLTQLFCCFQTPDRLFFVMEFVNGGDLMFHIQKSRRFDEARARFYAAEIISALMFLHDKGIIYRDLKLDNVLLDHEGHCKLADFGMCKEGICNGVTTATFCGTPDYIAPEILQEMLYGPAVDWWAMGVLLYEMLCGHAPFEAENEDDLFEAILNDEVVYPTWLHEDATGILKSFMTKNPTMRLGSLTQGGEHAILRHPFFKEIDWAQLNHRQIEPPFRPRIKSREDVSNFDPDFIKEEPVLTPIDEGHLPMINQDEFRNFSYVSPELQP

SMILES | Activity (Raji [1]) | Ki [2] | Ki [3] | viability at 0.1 µM [4] | Activity (Raji [5]) | Ki [6] | Ki [7] | Ki [8] | viability at 1 µM [9] | viability at 1 µM [10] | Ki [11] | viability at 0.1 µM [12] | Ki [13] | Ki [14] | Activity (Raji [15]) | Activity (Raji [16])
CO[C@@H](CC[C@H](C)[C@H]1O[C@@]23C[C@H](OC(=O)C[C@H]([C@@H](C)O)OC(=O)C[C@](O)(O2)[C@H](C)CC3(C)C)[C@@H]1C)c1cc(O)ccc1Br [APLYSIATOXIN] | 17.8% | 0.16 nM | 1.3 nM | 50% | 18.4% | 0.41 nM | 0.45 nM | 12 nM | 40% | 40% | 0.63 nM | 50% | 0.4 nM | 0.36 nM | 19.4% | 20.1%
CCCCCCCCCCCCCC(=O)O[C@@H]1[C@@H](C)[C@@]2(O)[C@@H](C=C(CO)C[C@]3(O)C(=O)C(C)=C[C@@H]23)[C@@H]2C(C)(C)[C@]12OC(C)=O [PHORBOL MYRISTATE ACETATE] | – | – | – | – | 28.8% | – | – | – | 50% | – | – | 60% | – | – | – | 30.2%
O=C1C[C@H](CO)OC(=O)C[C@H]2CCC[C@]3(C[C@@H](C[C@@H](CCCCc4ccccc4)O3)O1)O2 | – | 170 nM | 820 nM | – | – | 170 nM | 3500 nM | 6800 nM | – | – | 1600 nM | – | 2400 nM | 180 nM | – | –
